In PMC4724521 (Phytochemistry, 2015):

How the values were obtained:
K. brevis EH = experiment: Inhibition assay of purified EH with fluorescent substrate 5b; format: biochemical, Karenia brevis; conditions: substrate 5b 100 μM, EH 0.1 mg/ml, 2 min preincubation, pH 7.0, 30 °C
[1] = test system: EH activity of K. brevis CFE
[2] = target: Rhodococcus erythropolis LEH; conditions: ref Arand et al., 2003; cited from earlier work

C[C@H]1O[C@@H]1c1ccccc1 (relative stereo) [trans-β-methylstyrene oxide-, trans-β-methylstyrene oxide]
IC50 (K. brevis EH): 14.3 mM

CC1OC1c1ccccc1 (stereo not drawn) [cis-β-methylstyrene oxide]
IC50 (K. brevis EH): 3.05 mM

CCCC(CCC)C(N)=O [valpromide 8, valpromide]
inhibition of total EH activity (in words) [1]: only adamantly urea 7 inhibited the total activity | Ki [2]: 0.1 mM

CC1(C)OC1c1ccccc1 (stereo not drawn) [β-dimethylstyrene oxide]
IC50 (K. brevis EH): 6.99 mM
